Experimental data published in article PMC10111423, “Antimalarial Imidazopyridines Incorporating an Intramolecular Hydrogen Bonding Motif: Medicinal Chemistry and Mechanistic Studies” (ACS Infectious Diseases, 2023).
Entries after “also recorded” stand apart in the source; their conditions may differ.

Key:
β-hematin = assay: β-Hematin inhibition assay (BHIA), cell-free NP-40 mediated; assay type: biochemical; conditions: mean of n = 3
Procedure: page 20: fold to attain six assay concentrations of 100-0.001 μg/mL. […] was used as the reference compound in this assay. The highest concentration of DMSO, which was used as the negative control, had no measurable effect on cell viability. After 44 hours of exposure of the cells to the test compounds, a solution of MTT was added. This was followed by an additional 4 hours of incubation at 37 °C. The assay plates were centrifuged, medium removed, and DMSO was added to the crystals. The amount of formazan was ascertained by measuring the absorbance at 540 nm. GraphPad Prism software was then used to generate IC50 values through a non-linear dose-response curve analysis. β-Hematin Inhibition Assay 20 mM stock solutions of controls and test compounds were made in DMSO. A solution […] was added to every well in columns 1-11 of a 96-well plate. 140 μL of water and 40 μL of 305.5 μM NP-40 were added to column 12 to mediate the formation of beta-hematin. 20 μL of test compounds (20 mM) were added to column 12 and 100 μL of this solution serially diluted to column 2, leaving column 1 blank (0 μM of test compound). 178.8 μL aliquot of hematin stock was suspended in 20 ml of a 1 M acetate buffer at pH 4.9. 100 μL of this hematin […] pH 7.4 and 50% pyridine) and 60 μL of acetone were added to all wells. The absorbances of plate wells were recorded at 405 nm on a SpectraMax plate reader. Sigmoidal dose-response curves with variable slopes were fitted to the absorbance data using GraphPad Prism to obtain the IC50 values for each compound. In vitro Microsomal Stability Assay The in vitro microsomal stability assay was performed in duplicate in a 96-well micro titre […] individually in human (pool of 50, mixed gender), rat (pool of 711, male Sprague Dawley) and mouse (pool of 1634, male CD1) liver microsomes (final protein concentration of 0.4 mg/mL; Xenotech, Kansas, USA), suspended in 0.1M phosphate buffer (pH 7.4). Incubations were S20

P. falciparum parasites = assay: Cellular heme fractionation (heme speciation) assay; assay type: cell-based, Plasmodium falciparum
Procedure: At this juncture, it is noteworthy that a true hemozoin inhibitor causes a dose-dependent increase in “free” heme and a corresponding decrease in hemozoin. page 23: Table S2: Concentrations of fluorescent dyes used for confocal imaging of P. falciparum with respective excitation lasers and emission filter settings. Dye Concentration Excitation Laser Emission filter DRAQ 5 500 nM 580 nm 600-630 nm LysoTracker 100 nM 561 nm 575-630 nm Nile Red 100 nM 561 nm 575-630 nm ER-Tracker 100 nM 561 nm 575-630 nm MitoTracker 100 nM 561 nm 650-710 nm 1.3-NBD 50 nM 420 nm 500-550 nm 3.14-NBD 75 nM 420 nm 500-550 nm Heme Fractionation Assay […] The heme fractionation assay was performed according to the methods previously described.9 After the IC50 of the target compounds was determined, a counting plate was prepared by adding 10 μL of the isolated washed trophozoites to the corresponding wells of a flat-bottomed 96-well plate. […] The hemocytometer determined cell counts for these six samples were statistically compared to the cell counts determined by flow cytometry to test for agreement. 10 μL of cells from the counting plate were loaded onto a bright-lined hemocytometer, and five large squares were counted after 10 minutes of settling. The concentration of cells in each well of the plate was determined using equation 1: CH 1⁄4 […] […] Typically, 10,000 events were counted for each sample. […]

Row | IC50 (β-hematin) | SMILES | Levels of hemozoin (Hz) Fe (P. falciparum parasites; between 0.5–2× IC50) | Levels of "free" heme Fe (P. falciparum parasites; increasing concentrations of compound)
1 | 33 µM | CCN(CCNc1cc2[nH]c(C3(C)CC3)nc2cn1)Cc1ccc(Cl)cc1O [Compound 6, 5-Chloro-2-((ethyl(2-((2-(1-methylcyclopropyl)-1H-imidazo[4,5-c]pyridin-6-yl)amino)ethyl)amino)methyl)phenol] |  | 
2 | 16 µM | CCN(CCNc1cc2[nH]c(C3CC3)nc2cn1)Cc1ccc(Cl)cc1O [Compound 5, 5-Chloro-2-(((2-((2-cyclopropyl-1H-imidazo[4,5-c]pyridin-6-yl)amino)ethyl)(ethyl)amino)methyl)phenol] |  | 
3 | 9 µM | CCN(CCNc1cc2[nH]c(-c3cccc(C(F)(F)F)c3)nc2cn1)Cc1ccc(Cl)cc1O [Compound 14, 5-Chloro-2-((ethyl(2-((2-(3-(trifluoromethyl)phenyl)-1H-imidazo[4,5-c]pyridin-6-yl)amino)ethyl)amino)methyl)phenol] | significant decrease; also recorded: decreased | no statistically significant change; also recorded: no statistically significant effect
4 | 18 µM | CCN(CCNc1cc2[nH]c(C3CCCC3)nc2cn1)Cc1ccc(Cl)cc1O [Compound 1, 5-Chloro-2-(((2-((2-cyclopentyl-1H-imidazo[4,5-c]pyridin-6-yl)amino)ethyl)(ethyl)amino)methyl)phenol] |  | 
5 | 65 µM | CCN(CCNc1cc2[nH]c(-c3ccc(C(F)(F)F)nc3)nc2cn1)Cc1ccc(Cl)cc1O [Compound 19, 5-Chloro-2-((ethyl(2-((2-(6-(trifluoromethyl)pyridin-3-yl)-1H-imidazo[4,5-c]pyridin-6-yl)amino)ethyl)amino)methyl)phenol] |  | 
